Experimental data: PubChem BioAssay (NCI)
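How tested: cells in 96-well plates exposed to compound for 48 hours at five concentrations. Abbreviation: GI50, concentration required for 50% inhibition of growth. At the TGI there is no net growth.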

Assays:
Assay in all cases: DTP human tumour cell line panel, 48 h
PC-3 prostate = test system: PC-3 prostate
DU-145 prostate = test system: DU-145 prostate
HL-60(TB) leukemia = test system: HL-60(TB) leukemia
LOX IMVI melanoma = test system: LOX IMVI melanoma
OVCAR-4 ovarian = test system: OVCAR-4 ovarian
MDA-MB-435 = test system: MDA-MB-435
A549 NSCLC = test system: A549 NSCLC
OVCAR-8 ovarian = test system: OVCAR-8 ovarian
786-0 renal = test system: 786-0 renal
UACC-62 melanoma = test system: UACC-62 melanoma
SR leukemia = test system: SR leukemia
RXF 393 renal = test system: RXF 393 renal
SNB-75 CNS = test system: SNB-75 CNS
HCT-15 colon = test system: HCT-15 colon
HS 578T breast = test system: HS 578T breast
KM12 colon = test system: KM12 colon
MCF7 breast = test system: MCF7 breast
SK-MEL-28 melanoma = test system: SK-MEL-28 melanoma
NCI/ADR-RES ovarian = test system: NCI/ADR-RES ovarian
SN12C renal = test system: SN12C renal
SF-268 CNS = test system: SF-268 CNS
HCC-2998 colon = test system: HCC-2998 colon
HOP-92 NSCLC = test system: HOP-92 NSCLC
OVCAR-3 ovarian = test system: OVCAR-3 ovarian
RPMI-8226 leukemia = test system: RPMI-8226 leukemia
MOLT-4 leukemia = test system: MOLT-4 leukemia
SW-620 colon = test system: SW-620 colon
HT29 colon = test system: HT29 colon
A498 renal = test system: A498 renal
NCI-H460 lung = test system: NCI-H460 lung
NCI-H23 lung = test system: NCI-H23 lung
TK-10 renal = test system: TK-10 renal
SK-OV-3 ovarian = test system: SK-OV-3 ovarian
T-47D breast = test system: T-47D breast
CAKI-1 renal = test system: CAKI-1 renal
SF-295 CNS = test system: SF-295 CNS
MALME-3M melanoma = test system: MALME-3M melanoma
IGROV1 ovarian = test system: IGROV1 ovarian
UACC-257 melanoma = test system: UACC-257 melanoma
U251 CNS = test system: U251 CNS
K-562 leukemia = test system: K-562 leukemia
SNB-19 CNS = test system: SNB-19 CNS
MDA-MB-231 breast = test system: MDA-MB-231 breast
HCT-116 colon = test system: HCT-116 colon
BT-549 breast = test system: BT-549 breast
M14 melanoma = test system: M14 melanoma
HOP-62 NSCLC = test system: HOP-62 NSCLC
CCRF-CEM leukemia = test system: CCRF-CEM leukemia
NCI-H522 lung = test system: NCI-H522 lung
NCI-H226 lung = test system: NCI-H226 lung
SK-MEL-2 melanoma = test system: SK-MEL-2 melanoma
UO-31 renal = test system: UO-31 renal
ACHN renal = test system: ACHN renal
OVCAR-5 ovarian = test system: OVCAR-5 ovarian
EKVX NSCLC = test system: EKVX NSCLC
SF-539 CNS = test system: SF-539 CNS
COLO 205 colon = test system: COLO 205 colon
SK-MEL-5 melanoma = test system: SK-MEL-5 melanoma
MDA-MB-468 breast = test system: MDA-MB-468 breast

For Cc1cc(N=C2NC(=O)/C(=C/c3cc(C(C)(C)C)c(O)c(C(C)(C)C)c3)S2)n[nH]1, the GI50 (PC-3 prostate) was 1.78 µM, the TGI (PC-3 prostate) was 22.3 µM and the GI50 (DU-145 prostate) was 4.87 µM. The TGI (DU-145 prostate) was greater than 100 µM, the GI50 (HL-60(TB) leukemia) was 4.27 µM and the TGI (HL-60(TB) leukemia) was 23.8 µM. The GI50 (LOX IMVI melanoma) was 2.29 µM, the TGI (LOX IMVI melanoma) was 14.5 µM and the GI50 (OVCAR-4 ovarian) was 3.09 µM. For the same compound, the TGI (OVCAR-4 ovarian) was 17.7 µM, the GI50 (MDA-MB-435) was 4.04 µM and the TGI (MDA-MB-435) was 16.4 µM. It also gave a GI50 (A549 NSCLC) of 2.61 µM, a TGI (A549 NSCLC) of 18.3 µM and a GI50 (OVCAR-8 ovarian) of 3.69 µM. The TGI (OVCAR-8 ovarian) was 19.6 µM, the GI50 (786-0 renal) was 3.81 µM and the TGI (786-0 renal) was 15.7 µM. The GI50 (UACC-62 melanoma) was 3.58 µM, the TGI (UACC-62 melanoma) was 15.3 µM and the GI50 (SR leukemia) was 3.33 µM. The TGI (SR leukemia) was 40.6 µM, the GI50 (RXF 393 renal) was 2.19 µM and the TGI (RXF 393 renal) was 11.8 µM. The GI50 (SNB-75 CNS) was 4.6 µM, the TGI (SNB-75 CNS) was 20.1 µM and the GI50 (HCT-15 colon) was 1.5 µM. It also gave a TGI (HCT-15 colon) of 13.2 µM, a GI50 (HS 578T breast) of 1.98 µM and a TGI (HS 578T breast) of 13.2 µM. For the same compound, the GI50 (KM12 colon) was 4.28 µM, the TGI (KM12 colon) was 18 µM and the GI50 (MCF7 breast) was 1.93 µM. The TGI (MCF7 breast) was 12.2 µM, the GI50 (SK-MEL-28 melanoma) was 4.67 µM and the TGI (SK-MEL-28 melanoma) was 17.1 µM. It also gave a GI50 (NCI/ADR-RES ovarian) of 1.35 µM, a TGI (NCI/ADR-RES ovarian) of 14.3 µM and a GI50 (SN12C renal) of 2.7 µM. The TGI (SN12C renal) was 14.8 µM, the GI50 (SF-268 CNS) was 4.69 µM and the TGI (SF-268 CNS) was 24.2 µM. The GI50 (HCC-2998 colon) was 4.22 µM, the TGI (HCC-2998 colon) was 16.4 µM and the GI50 (HOP-92 NSCLC) was 1.87 µM. It also gave a TGI (HOP-92 NSCLC) of 14.7 µM, a GI50 (OVCAR-3 ovarian) of 3.68 µM and a TGI (OVCAR-3 ovarian) of 18.1 µM. For the same compound, the GI50 (RPMI-8226 leukemia) was 2.43 µM, the TGI (RPMI-8226 leukemia) was 13.3 µM and the GI50 (MOLT-4 leukemia) was 2.39 µM. For the same compound, the TGI (MOLT-4 leukemia) was 14 µM, the GI50 (SW-620 colon) was 3.71 µM and the TGI (SW-620 colon) was 14.2 µM. It also gave a GI50 (HT29 colon) of 4.79 µM, a TGI (HT29 colon) of 25 µM and a GI50 (A498 renal) of 1.49 µM. For the same compound, the TGI (A498 renal) was 11.1 µM, the GI50 (NCI-H460 lung) was 0.755 µM and the TGI (NCI-H460 lung) was 10.5 µM. It also gave a GI50 (NCI-H23 lung) of 2.45 µM, a TGI (NCI-H23 lung) of 13.3 µM and a GI50 (TK-10 renal) of 6.19 µM. The TGI (TK-10 renal) was 23.8 µM, the GI50 (SK-OV-3 ovarian) was 5.58 µM and the TGI (SK-OV-3 ovarian) was 21.1 µM. The GI50 (T-47D breast) was 2.41 µM, the TGI (T-47D breast) was 24.9 µM and the GI50 (CAKI-1 renal) was 2.71 µM. It also gave a TGI (CAKI-1 renal) of 19.1 µM, a GI50 (SF-295 CNS) of 1.07 µM and a TGI (SF-295 CNS) of 10.8 µM. It also gave a GI50 (MALME-3M melanoma) of 2.7 µM, a TGI (MALME-3M melanoma) of 14.2 µM and a GI50 (IGROV1 ovarian) of 2.47 µM. It also gave a TGI (IGROV1 ovarian) of 16.8 µM, a GI50 (UACC-257 melanoma) of 4.63 µM and a TGI (UACC-257 melanoma) of 19 µM. For the same compound, the GI50 (U251 CNS) was 2.15 µM, the TGI (U251 CNS) was 13.6 µM and the GI50 (K-562 leukemia) was 2.47 µM. For the same compound, the TGI (K-562 leukemia) was greater than 100 µM, the GI50 (SNB-19 CNS) was 3.26 µM and the TGI (SNB-19 CNS) was 15.8 µM. For the same compound, the GI50 (MDA-MB-231 breast) was 5.7 µM, the TGI (MDA-MB-231 breast) was 20 µM and the GI50 (HCT-116 colon) was 1.88 µM. For the same compound, the TGI (HCT-116 colon) was 12.8 µM, the GI50 (BT-549 breast) was 2.63 µM and the TGI (BT-549 breast) was 12.2 µM. It also gave a GI50 (M14 melanoma) of 4.58 µM, a TGI (M14 melanoma) of 19.2 µM and a GI50 (HOP-62 NSCLC) of 3.67 µM. The TGI (HOP-62 NSCLC) was 21.1 µM, the GI50 (CCRF-CEM leukemia) was 1.9 µM and the TGI (CCRF-CEM leukemia) was 14.9 µM. It also gave a GI50 (NCI-H522 lung) of 5.35 µM, a TGI (NCI-H522 lung) of 20.5 µM and a GI50 (NCI-H226 lung) of 1.89 µM. The TGI (NCI-H226 lung) was 15.1 µM, the GI50 (SK-MEL-2 melanoma) was 4.35 µM and the TGI (SK-MEL-2 melanoma) was 18.8 µM. The GI50 (UO-31 renal) was 2.1 µM, the TGI (UO-31 renal) was 14.5 µM and the GI50 (ACHN renal) was 3.25 µM. The TGI (ACHN renal) was 14.4 µM, the GI50 (OVCAR-5 ovarian) was 5.61 µM and the TGI (OVCAR-5 ovarian) was 19.4 µM. The GI50 (EKVX NSCLC) was 1.9 µM, the TGI (EKVX NSCLC) was 10.8 µM and the GI50 (SF-539 CNS) was 4.6 µM. It also gave a TGI (SF-539 CNS) of 16.4 µM, a GI50 (COLO 205 colon) of 4.41 µM and a TGI (COLO 205 colon) of 18.9 µM. The GI50 (SK-MEL-5 melanoma) was 1.63 µM, the TGI (SK-MEL-5 melanoma) was 3.66 µM and the GI50 (MDA-MB-468 breast) was 2.55 µM. The TGI (MDA-MB-468 breast) was 13.2 µM.
